For 27 targets, thermal stability z-score results are on record in the supplement of paper PMC12463676, “Small-molecule dissolution of stress granules by redox modulation benefits ALS models” (Nature Chemical Biology, 2025).

Compound in experiment [1]: NC(=O)CCCCC1CCSS1 [lipoamide]
The experiment in a line: thermal stability z-score vs DMSO; higher = more thermally stabilized by treatment. The conditions noted are these: HeLa, lipoamide concentration 100 µM. How it is done: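 Cellular thermal proteome profiling in HeLa cells. Cells were treated with 100 µM lipoamide for 1 h, with or without 1 mM arsenate for a further 1 h, then heated to ten temperatures (37-66.3 °C), and soluble protein was quantified by TMT mass spectrometry relative to 0.1% DMSO controls. The thermal stability score (sum of log2 fold changes minus the abundance score) was transformed to a z-score; mean of n = 3 experiments.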

Compound in experiment [2]: O=[As]([O-])(O)O.[K+] [potassium arsenate]
Described as above. The conditions noted are these: HeLa; arsenate concentration 1 mM. How it is done: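 Cellular thermal proteome profiling in HeLa cells treated with 1 mM arsenate for 1 h (DMSO pretreatment), heated to ten temperatures (37-66.3 °C). Soluble protein was quantified by TMT mass spectrometry relative to DMSO controls; the thermal stability score was transformed to a z-score; mean of n = 3 experiments.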

Where [3] appears, read: arsenate co-treatment: 1 mM arsenate 1 h.
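Also: each temperature applied for 3 min, abundance score taken as mean log2 fold change at the two lowest temperatures, z-score obtained by mean subtraction and division by SD.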

Chain of UniProt Q9UQ13 (Q9UQ13 whole entry): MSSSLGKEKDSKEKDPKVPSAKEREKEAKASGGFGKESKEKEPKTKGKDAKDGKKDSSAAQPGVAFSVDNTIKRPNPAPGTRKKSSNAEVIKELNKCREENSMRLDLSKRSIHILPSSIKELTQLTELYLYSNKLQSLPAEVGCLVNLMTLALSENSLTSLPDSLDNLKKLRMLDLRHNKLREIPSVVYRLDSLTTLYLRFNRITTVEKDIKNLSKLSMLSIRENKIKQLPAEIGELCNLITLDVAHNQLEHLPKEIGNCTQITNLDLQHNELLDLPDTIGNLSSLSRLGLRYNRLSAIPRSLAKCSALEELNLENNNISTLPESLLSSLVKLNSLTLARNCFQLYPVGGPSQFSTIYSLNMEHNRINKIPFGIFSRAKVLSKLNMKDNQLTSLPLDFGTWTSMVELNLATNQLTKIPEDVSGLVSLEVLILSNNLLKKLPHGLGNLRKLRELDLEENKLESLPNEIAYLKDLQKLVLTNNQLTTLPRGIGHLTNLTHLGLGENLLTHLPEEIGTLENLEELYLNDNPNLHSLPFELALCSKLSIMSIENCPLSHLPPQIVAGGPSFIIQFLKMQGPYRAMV
Chain of UniProt P46939 (P46939 whole entry): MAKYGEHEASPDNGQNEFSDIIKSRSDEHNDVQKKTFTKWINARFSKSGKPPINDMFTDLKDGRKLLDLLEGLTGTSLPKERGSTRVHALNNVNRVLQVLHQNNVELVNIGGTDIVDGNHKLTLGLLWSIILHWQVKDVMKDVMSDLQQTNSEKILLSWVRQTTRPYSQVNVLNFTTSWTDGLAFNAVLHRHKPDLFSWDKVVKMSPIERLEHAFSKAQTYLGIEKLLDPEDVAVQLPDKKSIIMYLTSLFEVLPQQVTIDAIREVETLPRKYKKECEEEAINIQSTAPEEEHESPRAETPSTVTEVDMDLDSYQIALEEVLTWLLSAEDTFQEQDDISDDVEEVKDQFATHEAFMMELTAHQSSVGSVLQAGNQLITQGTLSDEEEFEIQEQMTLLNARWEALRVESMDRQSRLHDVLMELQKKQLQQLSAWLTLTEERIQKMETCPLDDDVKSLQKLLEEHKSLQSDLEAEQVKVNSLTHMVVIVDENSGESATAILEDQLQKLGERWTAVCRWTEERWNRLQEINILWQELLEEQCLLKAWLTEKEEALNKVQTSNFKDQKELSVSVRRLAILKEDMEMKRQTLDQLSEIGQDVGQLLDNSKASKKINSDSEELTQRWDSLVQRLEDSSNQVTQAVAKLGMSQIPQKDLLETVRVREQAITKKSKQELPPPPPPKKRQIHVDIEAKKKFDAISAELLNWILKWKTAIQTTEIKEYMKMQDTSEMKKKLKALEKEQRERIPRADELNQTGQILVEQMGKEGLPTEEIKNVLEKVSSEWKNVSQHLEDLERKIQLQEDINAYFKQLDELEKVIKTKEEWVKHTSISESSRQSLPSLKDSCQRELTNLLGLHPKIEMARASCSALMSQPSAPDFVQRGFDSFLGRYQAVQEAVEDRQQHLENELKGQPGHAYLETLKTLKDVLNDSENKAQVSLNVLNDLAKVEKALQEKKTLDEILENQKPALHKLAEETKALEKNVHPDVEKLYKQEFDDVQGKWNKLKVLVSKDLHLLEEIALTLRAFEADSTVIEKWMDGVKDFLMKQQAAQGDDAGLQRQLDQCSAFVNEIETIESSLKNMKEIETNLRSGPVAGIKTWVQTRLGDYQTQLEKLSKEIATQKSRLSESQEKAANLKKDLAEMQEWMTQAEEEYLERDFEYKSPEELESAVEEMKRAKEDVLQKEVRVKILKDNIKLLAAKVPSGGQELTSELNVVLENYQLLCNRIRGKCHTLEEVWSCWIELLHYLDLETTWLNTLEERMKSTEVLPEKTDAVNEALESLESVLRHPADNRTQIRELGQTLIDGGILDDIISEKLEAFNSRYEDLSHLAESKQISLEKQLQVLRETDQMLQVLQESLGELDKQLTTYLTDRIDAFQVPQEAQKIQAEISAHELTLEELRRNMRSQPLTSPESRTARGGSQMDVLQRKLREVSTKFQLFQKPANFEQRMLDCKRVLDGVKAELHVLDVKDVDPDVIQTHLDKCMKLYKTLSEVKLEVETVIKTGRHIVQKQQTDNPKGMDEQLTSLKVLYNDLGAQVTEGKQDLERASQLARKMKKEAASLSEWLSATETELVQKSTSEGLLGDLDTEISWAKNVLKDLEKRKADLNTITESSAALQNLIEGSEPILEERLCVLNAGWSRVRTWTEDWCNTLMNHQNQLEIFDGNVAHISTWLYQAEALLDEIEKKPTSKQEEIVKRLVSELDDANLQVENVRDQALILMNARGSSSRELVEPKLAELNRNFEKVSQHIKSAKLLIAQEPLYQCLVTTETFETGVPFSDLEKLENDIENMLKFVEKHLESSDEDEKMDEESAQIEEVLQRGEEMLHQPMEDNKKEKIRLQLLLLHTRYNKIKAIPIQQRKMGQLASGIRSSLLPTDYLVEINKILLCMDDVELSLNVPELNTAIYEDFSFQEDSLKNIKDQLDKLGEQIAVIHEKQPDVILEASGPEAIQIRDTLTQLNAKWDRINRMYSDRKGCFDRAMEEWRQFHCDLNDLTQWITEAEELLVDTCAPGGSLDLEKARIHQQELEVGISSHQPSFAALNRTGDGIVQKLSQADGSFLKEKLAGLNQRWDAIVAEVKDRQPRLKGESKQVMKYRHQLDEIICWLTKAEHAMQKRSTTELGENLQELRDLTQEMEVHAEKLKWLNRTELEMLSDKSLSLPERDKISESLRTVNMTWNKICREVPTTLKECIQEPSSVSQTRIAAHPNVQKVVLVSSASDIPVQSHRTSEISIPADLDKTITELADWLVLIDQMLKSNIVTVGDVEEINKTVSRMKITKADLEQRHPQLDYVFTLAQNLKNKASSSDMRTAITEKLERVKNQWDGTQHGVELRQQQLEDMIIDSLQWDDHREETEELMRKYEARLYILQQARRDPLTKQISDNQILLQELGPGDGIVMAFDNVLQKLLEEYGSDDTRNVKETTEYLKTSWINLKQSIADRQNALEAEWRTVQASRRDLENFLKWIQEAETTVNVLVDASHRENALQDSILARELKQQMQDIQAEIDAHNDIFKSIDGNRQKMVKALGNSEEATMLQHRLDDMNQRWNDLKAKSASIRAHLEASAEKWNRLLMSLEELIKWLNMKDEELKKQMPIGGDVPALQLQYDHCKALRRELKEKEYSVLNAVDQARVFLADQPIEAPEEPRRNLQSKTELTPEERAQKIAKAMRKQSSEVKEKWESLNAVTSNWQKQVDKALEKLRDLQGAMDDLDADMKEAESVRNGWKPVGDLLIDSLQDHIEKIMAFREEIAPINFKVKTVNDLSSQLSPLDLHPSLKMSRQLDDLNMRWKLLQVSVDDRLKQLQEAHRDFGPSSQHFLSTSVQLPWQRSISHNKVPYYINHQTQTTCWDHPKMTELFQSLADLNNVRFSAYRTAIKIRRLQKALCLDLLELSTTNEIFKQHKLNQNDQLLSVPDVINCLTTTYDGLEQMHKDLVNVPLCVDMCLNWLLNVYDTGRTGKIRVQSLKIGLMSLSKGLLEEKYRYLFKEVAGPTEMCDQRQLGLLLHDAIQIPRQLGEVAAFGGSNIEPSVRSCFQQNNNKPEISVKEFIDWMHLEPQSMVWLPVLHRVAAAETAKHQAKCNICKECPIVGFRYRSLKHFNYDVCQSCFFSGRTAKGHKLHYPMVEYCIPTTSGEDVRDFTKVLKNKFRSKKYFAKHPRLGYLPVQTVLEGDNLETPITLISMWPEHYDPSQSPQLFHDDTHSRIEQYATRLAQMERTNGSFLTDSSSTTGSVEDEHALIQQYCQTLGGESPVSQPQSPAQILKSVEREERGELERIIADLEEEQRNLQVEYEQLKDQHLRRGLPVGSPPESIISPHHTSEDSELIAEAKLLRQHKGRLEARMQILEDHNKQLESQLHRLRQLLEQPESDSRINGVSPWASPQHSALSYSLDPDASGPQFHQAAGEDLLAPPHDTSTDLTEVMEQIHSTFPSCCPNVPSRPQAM
Chain of UniProt P36542 (P36542 whole entry): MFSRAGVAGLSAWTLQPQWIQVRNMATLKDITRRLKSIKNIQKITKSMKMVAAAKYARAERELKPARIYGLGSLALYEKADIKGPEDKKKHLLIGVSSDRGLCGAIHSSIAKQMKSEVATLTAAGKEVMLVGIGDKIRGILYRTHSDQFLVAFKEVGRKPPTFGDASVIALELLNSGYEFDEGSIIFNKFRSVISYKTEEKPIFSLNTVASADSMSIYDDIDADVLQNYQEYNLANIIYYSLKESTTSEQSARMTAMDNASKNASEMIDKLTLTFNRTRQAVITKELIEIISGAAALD
Chain of UniProt Q8WUY1 (Q8WUY1 whole entry): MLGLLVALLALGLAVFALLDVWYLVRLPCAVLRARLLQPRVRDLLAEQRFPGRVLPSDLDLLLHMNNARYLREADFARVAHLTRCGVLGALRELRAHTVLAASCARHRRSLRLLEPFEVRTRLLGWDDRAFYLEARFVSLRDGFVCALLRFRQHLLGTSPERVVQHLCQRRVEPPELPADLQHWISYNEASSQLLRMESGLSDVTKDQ
Chain of UniProt Q8IVM0 (Q8IVM0 whole entry): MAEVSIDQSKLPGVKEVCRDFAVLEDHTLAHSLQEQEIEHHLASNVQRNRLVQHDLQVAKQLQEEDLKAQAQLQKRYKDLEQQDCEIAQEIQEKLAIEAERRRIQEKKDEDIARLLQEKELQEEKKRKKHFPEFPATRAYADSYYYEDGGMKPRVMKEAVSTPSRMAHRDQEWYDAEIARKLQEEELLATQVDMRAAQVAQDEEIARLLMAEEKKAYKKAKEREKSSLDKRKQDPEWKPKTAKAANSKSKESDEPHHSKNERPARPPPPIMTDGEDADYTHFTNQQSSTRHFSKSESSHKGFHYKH
Chain of UniProt Q9Y3L5 (Q9Y3L5 whole entry): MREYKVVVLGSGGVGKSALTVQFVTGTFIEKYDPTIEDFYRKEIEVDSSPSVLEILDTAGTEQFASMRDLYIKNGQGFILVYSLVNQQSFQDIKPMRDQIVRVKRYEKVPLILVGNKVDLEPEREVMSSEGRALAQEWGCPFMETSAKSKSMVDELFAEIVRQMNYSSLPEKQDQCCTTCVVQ

Consider PXN (UniProt P49023), for which the thermal stability z-score was -0.261 in experiment [1] (setting [3]), -0.432 in experiment [1] (arsenate co-treatment: none) and -2 in experiment [2].

For the target THEM6 (UniProt Q8WUY1), the thermal stability z-score in experiment [1] (setting [3]) was determined as 0.308; in experiment [1] (arsenate co-treatment: none), 0.289; in experiment [2], 0.723.

Turning to CCDC50 (UniProt Q8IVM0), the thermal stability z-score in experiment [1] (setting [3]) is 0.557; in experiment [1] (arsenate co-treatment: none) it was 0.248; in experiment [2] it was -0.0338.

Take SURF2 (UniProt Q15527): the thermal stability z-score in experiment [1] (setting [3]) is -0.0697; in experiment [1] (arsenate co-treatment: none), 0.247; in experiment [2], -0.529.

Regarding DICER1 (UniProt Q9UPY3), the thermal stability z-score in experiment [1] (setting [3]) is 0.656; in experiment [1] (arsenate co-treatment: none), 0.00487; in experiment [2], -0.398.

Consider CENPV (UniProt Q7Z7K6), for which the thermal stability z-score in experiment [1] (setting [3]) is 0.172; in experiment [1] (arsenate co-treatment: none), 0.192; in experiment [2], -0.0535.

For PTGR1 (UniProt Q14914), the thermal stability z-score in experiment [1] (setting [3]) stood at 1.49; in experiment [1] (arsenate co-treatment: none), 1.67; in experiment [2], 0.672.

Turning to SF3A2 (UniProt Q15428), the thermal stability z-score is -0.0843 in experiment [1] (setting [3]), -0.43 in experiment [1] (arsenate co-treatment: none) and -0.0497 in experiment [2].

On to SAMD9 (UniProt Q5K651), for which the thermal stability z-score in experiment [1] (setting [3]) is -0.0476; in experiment [1] (arsenate co-treatment: none), -0.0624; in experiment [2], -0.13.

For MRPL37 (UniProt Q9BZE1), the thermal stability z-score in experiment [1] (setting [3]) was -0.398; in experiment [1] (arsenate co-treatment: none), -0.403; in experiment [2], -0.0807.

As for GORAB (UniProt Q5T7V8), the thermal stability z-score in experiment [1] (setting [3]) was 0.521; in experiment [1] (arsenate co-treatment: none) it was 0.173; in experiment [2], 0.527.

ATP5C1 (UniProt P36542): the figures for the thermal stability z-score in experiment [1] (setting [3]), in experiment [1] (arsenate co-treatment: none) and in experiment [2] were -0.36, -0.306 and -0.252, respectively.

ARL2 (UniProt P36404): the thermal stability z-score in experiment [1] (setting [3]) is -0.405; in experiment [1] (arsenate co-treatment: none) it was -0.0766; in experiment [2], 0.664.

For AP3D1 (UniProt O14617), the figures for the thermal stability z-score in experiment [1] (setting [3]), in experiment [1] (arsenate co-treatment: none) and in experiment [2] were -0.494, -0.336 and 0.577, respectively.

As to DDX31 (UniProt Q9H8H2), the thermal stability z-score was 0.19 in experiment [1] (setting [3]), 0.0101 in experiment [1] (arsenate co-treatment: none) and -0.348 in experiment [2].

As for EPN2 (UniProt O95208), the thermal stability z-score in experiment [1] (setting [3]) was 1.13; in experiment [1] (arsenate co-treatment: none), 0.804; in experiment [2] it was -0.0882.

As for RSPRY1 (UniProt Q96DX4), the thermal stability z-score in experiment [1] (setting [3]) was 0.302; in experiment [1] (arsenate co-treatment: none), 0.576; in experiment [2], -0.152.

As to RPL31 (UniProt P62899), the thermal stability z-score was -0.223 in experiment [1] (setting [3]), -0.0856 in experiment [1] (arsenate co-treatment: none) and -0.8 in experiment [2].

In the case of ARHGAP35 (UniProt Q9NRY4), the thermal stability z-score in experiment [1] (setting [3]) was -0.512; in experiment [1] (arsenate co-treatment: none) it was -0.145; in experiment [2] it was 0.128.

Turning to ALDH4A1 (UniProt P30038), the figures for the thermal stability z-score in experiment [1] (setting [3]), in experiment [1] (arsenate co-treatment: none) and in experiment [2] were -0.59, -0.14 and 1.19, respectively.

Regarding GIT2 (UniProt Q14161), the figures for the thermal stability z-score in experiment [1] (setting [3]), in experiment [1] (arsenate co-treatment: none) and in experiment [2] were 1.13, 1.87 and 1, respectively.

Turning to NEMP1 (UniProt O14524), the thermal stability z-score in experiment [1] (setting [3]) was -0.805; in experiment [1] (arsenate co-treatment: none), -0.823; in experiment [2] it was 0.154.

As to SHOC2 (UniProt Q9UQ13), the thermal stability z-score in experiment [1] (setting [3]) is 0.22; in experiment [1] (arsenate co-treatment: none) it was -0.229; in experiment [2] it was -0.00952.

Take UTRN (UniProt P46939): the thermal stability z-score in experiment [1] (setting [3]) is 0.452; in experiment [1] (arsenate co-treatment: none), -0.0132; in experiment [2] it was -0.495.

For the target PRKAR1B (UniProt P31321), the thermal stability z-score in experiment [1] (setting [3]) was 0.568; in experiment [1] (arsenate co-treatment: none) it was 0.264; in experiment [2], 1.31.

Turning to BCS1L (UniProt Q9Y276), the results for the thermal stability z-score in experiment [1] (setting [3]), in experiment [1] (arsenate co-treatment: none) and in experiment [2] were 0.472, 0.86 and 0.3, respectively.

Regarding RAP2C (UniProt Q9Y3L5), the thermal stability z-score was determined as 1.35 in experiment [1] (setting [3]), 0.676 in experiment [1] (arsenate co-treatment: none) and 0.21 in experiment [2].
